# Results from patent EP1129097B1, “NOVEL TYPE CONDENSED PYRIDAZINONE COMPOUNDS” (GYOGYSZERKUTATO INTEZET KFT., priority 1998, dated 2000).
# Experiments:
# [1] = tested on: scopolamine-induced memory-deficit in rats; assay: passive avoidance test, counter-balancing scopolamine-induced memory-deficit; type: in vivo; details: oral doses of 50 mg/kg
# Method: The memory-enhancing effect of the compounds according to the invention was measured by counter-balancing the scopolamine-induced memory-deficit in rats, with oral doses of 50 mg/kg, in the passive avoidance test published by Cumin, R. et al. [Psychopharmacology, 78, 104 (1982)].
# [2] = tested on: AMPA; assay: AMPA-induced spreading depression of chick retina; details: concentration of 20 µM
# Method: The AMPA antagonistic effect of the compounds was also tested on spreading depression of chick retina (Sheardown, M. J.: Brain Res., 1993, 607, 189) in a concentration of 20 µM.
SMILES,Memory improvement compared to amnesic control (%) [1] [%],Antagonistic effect on AMPA-induced spreading depression (%) [2] [%]
"Cn1ncc2c(c1=O)SCCNC2C(=O)c1ccccc1 (stereo not shown) [Example 3, 5-Benzoyl-8-methyl-2,3,4,5-tetrahydro-9(8H)-pyridazino[4,5-b][1,5]thiazepinone]",100,10
"O=c1c2c(cnn1CC=Cc1ccccc1)N(Cc1ccccc1)CCCO2 [Example 7, 5-Benzyl-8-cynnamyl-2,3,4,5-tetrahydro-9(8H)-pyridazino[4,5-b] [1,5]oxazepinone]",250,16
